The target of assay [1] is T1, Beta-2 adrenergic receptor (Homo sapiens, UniProt P07550). Kind of assay: Dose response for HTS for Beta-2AR agonists via FAP method from Powderset1. Type of assay: functional.
Assay [2] has as its target T1, Beta-2 adrenergic receptor. Kind of assay: ADRB2 activation measured by internalization – cell-based, FAP fluorogen, flow cytometry, cherry pick 1, dose response (AID 588763). Type of assay: functional.
Assay [3] addresses Beta-adrenergic receptor kinase 1 (Homo sapiens, UniProt P25098). Briefly: aptamer displacement from bead-bound GRK2 – biochemical, cherry pick 1, bead flow cytometry, dose response (AID 504500).
For assay [4], the target named is E3 ubiquitin-protein ligase XIAP (Homo sapiens, UniProt P98170). Briefly: Counter Screen using XIAP-Bir3 for Chemical Antagonists of Bir1/2 domains of IAP-family anti-apoptotic proteins. [Related pubchem assays (depositor defined):AID1018, AID1449, AID1514, AID1638, AID1749, AID1750, AID488957, AID488963].
Chain of E3 ubiquitin-protein ligase XIAP (P98170 whole entry): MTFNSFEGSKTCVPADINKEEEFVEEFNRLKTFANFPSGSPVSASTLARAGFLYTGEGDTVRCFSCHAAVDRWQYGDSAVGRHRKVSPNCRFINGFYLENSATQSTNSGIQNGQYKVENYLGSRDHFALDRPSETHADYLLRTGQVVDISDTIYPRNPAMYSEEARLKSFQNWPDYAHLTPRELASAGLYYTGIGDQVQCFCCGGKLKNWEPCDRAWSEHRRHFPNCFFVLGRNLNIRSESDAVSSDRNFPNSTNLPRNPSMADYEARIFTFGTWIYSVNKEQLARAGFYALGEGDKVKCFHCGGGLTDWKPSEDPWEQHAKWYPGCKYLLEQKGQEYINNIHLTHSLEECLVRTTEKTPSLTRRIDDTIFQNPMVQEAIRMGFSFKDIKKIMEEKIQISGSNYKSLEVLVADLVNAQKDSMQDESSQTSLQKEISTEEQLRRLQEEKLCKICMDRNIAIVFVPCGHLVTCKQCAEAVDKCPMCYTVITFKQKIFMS
The next assay has as its target Large T antigen (Simian virus 40, UniProt P03070). The assay is classed as functional, Betapolyomavirus macacae.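 Also: Confirmatory-stage PubChem screen for compounds that inhibit SV40 T antigen.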
The nature of assay [5]: alpha-synuclein stem-loop luciferase translation blockers – H4 neuroglioma cells, luminescence, confirmation (AID 1988). The assay is classed as functional, cell-based.
Assay [6] is described as follows: NIH-3T3 fibroblast cytotoxicity, dose response, cytotoxicity control, cell-based, fluorescence, Alamar Blue, secondary assay (AID 2327).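 Also: NIH-3T3 mouse fibroblasts cultured with fluconazole at 8 µg/mL.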 Type of assay: functional.
Assay [7] can be described thus: fluconazole-exposed Candida albicans growth modulators – fluorescence, retest, confirmation (AID 2467). The assay is classed as functional, cell-based.
Assay [8] can be described thus: luciferase reporter signal suppression in cells – H4 neuroglioma cells, luminescence, dose response (AID 1990). The assay is classed as functional, cell-based.
The target in assay [9] is Voltage-gated inwardly rectifying potassium channel KCNH2 (Homo sapiens, UniProt Q12809). To be noted: Potency.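 Also: confirmatory quantitative high-throughput screen measuring inhibition of hERG channel activity.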
Chain of Voltage-gated inwardly rectifying potassium channel KCNH2 (Q12809 whole entry): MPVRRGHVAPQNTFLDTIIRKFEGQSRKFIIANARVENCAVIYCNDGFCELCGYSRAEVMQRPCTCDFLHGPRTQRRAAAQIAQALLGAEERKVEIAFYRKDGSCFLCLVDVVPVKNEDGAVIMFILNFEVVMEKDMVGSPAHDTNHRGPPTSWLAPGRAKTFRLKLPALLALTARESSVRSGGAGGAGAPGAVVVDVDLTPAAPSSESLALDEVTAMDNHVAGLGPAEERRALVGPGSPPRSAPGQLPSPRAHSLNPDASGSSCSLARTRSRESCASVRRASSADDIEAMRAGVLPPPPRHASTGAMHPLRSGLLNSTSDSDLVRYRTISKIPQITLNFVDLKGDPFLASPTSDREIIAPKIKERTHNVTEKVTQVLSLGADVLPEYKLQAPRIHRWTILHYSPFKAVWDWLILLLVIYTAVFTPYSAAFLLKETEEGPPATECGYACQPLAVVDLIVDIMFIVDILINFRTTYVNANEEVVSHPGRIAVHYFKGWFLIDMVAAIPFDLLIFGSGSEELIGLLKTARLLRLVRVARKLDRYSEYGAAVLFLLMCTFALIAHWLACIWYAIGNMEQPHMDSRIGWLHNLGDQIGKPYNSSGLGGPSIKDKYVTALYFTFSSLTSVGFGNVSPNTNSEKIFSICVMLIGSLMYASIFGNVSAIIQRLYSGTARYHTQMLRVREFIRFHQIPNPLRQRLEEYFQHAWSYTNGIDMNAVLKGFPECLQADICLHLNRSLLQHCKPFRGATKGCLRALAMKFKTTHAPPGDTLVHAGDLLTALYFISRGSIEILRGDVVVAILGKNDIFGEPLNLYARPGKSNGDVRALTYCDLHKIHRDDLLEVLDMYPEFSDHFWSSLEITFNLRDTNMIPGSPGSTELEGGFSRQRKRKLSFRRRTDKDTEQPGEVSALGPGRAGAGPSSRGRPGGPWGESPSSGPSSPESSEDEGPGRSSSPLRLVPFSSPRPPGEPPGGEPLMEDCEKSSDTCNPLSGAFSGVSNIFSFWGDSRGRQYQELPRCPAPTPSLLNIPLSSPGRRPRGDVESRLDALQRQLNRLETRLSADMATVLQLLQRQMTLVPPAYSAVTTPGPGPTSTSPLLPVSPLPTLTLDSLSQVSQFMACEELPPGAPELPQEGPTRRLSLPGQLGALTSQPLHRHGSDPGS
Assay [10] concerns the target Aryl hydrocarbon receptor (Homo sapiens, UniProt P35869). Conditions: Potency.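 Also: confirmatory quantitative high-throughput screen measuring activation of the AhR signaling pathway.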
Assay [11] is described as follows: toxicity toward immortalized ovarian surface epithelium – cell-based, plate reader, dry powder samples, cytotoxicity control for PAX8 inhibitor project, dose response (AID 743045). The assay is classed as functional.
For assay [12], the system named is BJ. Kind of assay: BJ-TERT fibroblast viability loss – cell-based, RAS-independent, luminescence, dose response (AID 1933). The assay is classed as functional. Conditions: Homo sapiens.
A short description of assay [13]: general cell-killing toxicity readout – plate reader, dry powder samples, cytotoxicity control for PAX8 inhibitor project, dose response (AID 743021). The assay is classed as functional, cell-based.
Assay [14] can be described thus: Luminescence-based dose response cell-based high throughput screening assay for cytotoxic compounds using the IEC-6 intestinal epithelial cell line. [Related pubchem assays: 1858 (Summary AID.), 1825 (Counterscreen.), 1907 (Confirmation screen.)]. The assay is classed as functional.
In the next assay the target is T2, Streptokinase A (Streptococcus pyogenes serotype M1, UniProt P10520).
T2 sequence (P10520 whole entry): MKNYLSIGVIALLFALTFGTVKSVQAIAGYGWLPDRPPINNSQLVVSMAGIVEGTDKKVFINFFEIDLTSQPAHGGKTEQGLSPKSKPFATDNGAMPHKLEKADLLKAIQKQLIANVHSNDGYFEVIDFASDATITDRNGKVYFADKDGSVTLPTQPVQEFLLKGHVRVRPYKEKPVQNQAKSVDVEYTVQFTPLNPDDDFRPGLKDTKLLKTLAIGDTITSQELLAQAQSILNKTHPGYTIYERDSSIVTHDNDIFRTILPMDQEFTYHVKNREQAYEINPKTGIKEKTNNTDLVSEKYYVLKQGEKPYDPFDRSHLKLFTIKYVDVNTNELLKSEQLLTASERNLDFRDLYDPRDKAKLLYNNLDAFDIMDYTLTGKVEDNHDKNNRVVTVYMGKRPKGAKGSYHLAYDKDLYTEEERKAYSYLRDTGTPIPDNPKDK
Kind of assay: viability-normalized secreted streptokinase activity reduction – plasminogen activation absorbance, OD405, dose response (AID 1914).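 Also: secreted streptokinase activity via plasminogen activation per viability signal from cell pellet.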 Type of assay: functional, Streptococcus pyogenes M1 GAS.

Assay [15] concerns Streptococcus sp. 'group A'. Briefly: Streptococcus pyogenes SK(-)GAS viability under kanamycin – luminescence, BacTiterGlo, confirmation, counter-screen for streptokinase expression inhibitor project, dose response (AID 1900). Type of assay: functional, organism-based.
The nature of assay [16]: COV434 cell viability loss – plate reader, dry powder, SA7, cytotoxicity control for PAX8 inhibitor project, dose response (AID 743145). The assay is classed as functional, cell-based.
The subject of assay [17] is HEK293. Briefly: SAR Analysis of small molecule inhibitors of both B-cell and T-cell specific antigen receptor-induced NF-kB activation in a HEK-293T cell line using a luminescence assay. [Related pubchem assays (depositor defined):AID435003, AID435022, AID465, AID489019, AID489029]. To be noted: Homo sapiens. The assay is classed as functional, cell-based.
Assay [18] is described as follows: OVCAR4 cell viability loss – plate reader, dry powder, SA11, cytotoxicity control for PAX8 inhibitor project, dose response (AID 743150). The assay is classed as functional, cell-based. Conditions: OVCAR-4.
The next assay deals with Streptococcus. Kind of assay: GAS UMAA2166 growth inhibition – luminescence, BacTiterGlo, counter-screen for streptokinase expression inhibitor project, dose response (AID 1915).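 Also: potency for reduction of bacterial viability or growth.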 Type of assay: functional, organism-based.
Assay [19] is described as follows: inhibitors acting on PAX2 in cells – cell-based, plate reader, dry powder samples, selectivity assay for PAX8 inhibitor project, dose response (AID 743048).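 Also: HEK293 cells carrying a WT1 promoter luciferase reporter driven by expressed Pax2; potency is for inhibition of Pax2 driven reporter signal.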 Type of assay: functional.
Assay [20] in a line: A2780 cell killing – plate reader, dry powder samples, cytotoxicity control, dose response (AID 743046). The assay is classed as functional, cell-based.
Assay [21] can be described thus: DRD fibroblast viability loss – cell-based, non-viral oncogenic, luminescence, dose response (AID 1934). To be noted: Homo sapiens. Type of assay: functional.
The test system of assay [22] is BJ. Briefly: growth inhibition of engineered Ras-driven BJ cells – cell-based, alamar blue fluorescence, cherrypicked samples, dose response (AID 2631).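 Also: confirmatory dose-response assay in RAS-dependent BJ fibroblasts engineered with TERT, LT and ST, with cytotoxicity read by fluorescence.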 Type of assay: functional. Conditions: Homo sapiens.
Assay [23] can be described thus: PAX8-dependent cell viability loss – plate reader, dry powder, dose response (AID 743049). The assay is classed as functional, cell-based.
The subject of assay [24] is HEK293. Briefly: HEK293T cell viability loss, resazurin readout – resazurin fluorescence, cytotoxicity control for NF-kB activator project, SAR follow-up (AID 493251). The assay is classed as functional, cell-based. Conditions: Homo sapiens.
Assay [25] relates to BJ. Briefly: BJ-TERT-LT-ST fibroblast viability loss – cell-based, RAS-independent, luminescence, dose response (AID 1935).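 Also: BJ fibroblasts immortalized with TERT plus LT and ST oncogenes.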 Conditions: Homo sapiens. The assay is classed as functional.
A short description of assay [26]: IGROV1 cell killing – plate reader, dry powder samples, PAX8 inhibitor project, dose response (AID 743043). Type of assay: functional, cell-based. To be noted: IGROV-1.
Assay [27] in a line: OV-90 cell viability loss – plate reader, dry powder, SA8, PAX8 inhibitor project, dose response (AID 743149). The assay is classed as functional, cell-based.
The target in a further assay is Beta-galactosidase (Escherichia coli, UniProt Q8VNN2). Briefly: PubChem AID 485352. The assay is classed as functional.
For another assay, the system named is Jurkat. Kind of assay: SAR Analysis of small molecule inhibitors of both B-cell and T-cell specific antigen receptor-induced NF-kB activation in a Jurkat cell line using a luminescence assay. [Related pubchem assays (depositor defined):AID435003, AID435022, AID465, AID489029]. Type of assay: functional, cell-based. To be noted: Homo sapiens.
The nature of assay [28]: HEK-293T viability loss after treatment – luminescence, T-cell screen hits, cytotoxicity control for TCR NF-kB inhibitor project, dose response (AID 489026).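 Also: cells exposed to compound about 14 hours before the viability readout.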 The assay is classed as functional, cell-based.
A further assay concerns the target Paired box protein Pax-8 (Homo sapiens, UniProt Q06710). Kind of assay: PAX8 transcriptional activity inhibition in RMG-I – RMG-I cells, luciferase, cherry-pick, dose response (AID 687027).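 Also: luciferase reporter driven by Pax8 target thyroperoxidase promoter measured by SteadyGlo luminescence.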 Type of assay: functional, cell-based.
The target in assay [29] is T3, Type-1 angiotensin II receptor (Homo sapiens, UniProt P30556).
T3 sequence (P30556 whole entry): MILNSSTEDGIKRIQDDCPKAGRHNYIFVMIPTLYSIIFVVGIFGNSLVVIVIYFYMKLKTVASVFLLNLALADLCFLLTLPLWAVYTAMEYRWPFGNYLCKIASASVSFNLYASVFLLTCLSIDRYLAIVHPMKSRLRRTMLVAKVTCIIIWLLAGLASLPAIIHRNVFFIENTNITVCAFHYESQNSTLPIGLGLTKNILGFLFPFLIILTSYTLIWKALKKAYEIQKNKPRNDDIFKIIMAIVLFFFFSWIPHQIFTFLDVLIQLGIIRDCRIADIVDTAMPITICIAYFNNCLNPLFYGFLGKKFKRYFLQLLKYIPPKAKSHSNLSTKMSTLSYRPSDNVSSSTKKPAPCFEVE
Briefly: antagonism of angiotensin II type 1 receptor – cell-based, uHTS hits, selectivity assay for APJ receptor antagonist project, dose response (AID 463214).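 Also: antagonist potency against angiotensin II stimulated AT1 response.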 The assay is classed as functional.

A short description of assay [30]: COV362 cell viability loss – plate reader, dry powder, SA12, cytotoxicity control for PAX8 inhibitor project, dose response (AID 743144). The assay is classed as functional, cell-based.
In assay [31] the test system is BJ. Briefly: cells. Type of assay: functional, cell-based. Conditions: Homo sapiens.

Activity calls are given as the source filed them. Some results are limits rather than exact numbers.

T1 sequence (P07550 whole entry): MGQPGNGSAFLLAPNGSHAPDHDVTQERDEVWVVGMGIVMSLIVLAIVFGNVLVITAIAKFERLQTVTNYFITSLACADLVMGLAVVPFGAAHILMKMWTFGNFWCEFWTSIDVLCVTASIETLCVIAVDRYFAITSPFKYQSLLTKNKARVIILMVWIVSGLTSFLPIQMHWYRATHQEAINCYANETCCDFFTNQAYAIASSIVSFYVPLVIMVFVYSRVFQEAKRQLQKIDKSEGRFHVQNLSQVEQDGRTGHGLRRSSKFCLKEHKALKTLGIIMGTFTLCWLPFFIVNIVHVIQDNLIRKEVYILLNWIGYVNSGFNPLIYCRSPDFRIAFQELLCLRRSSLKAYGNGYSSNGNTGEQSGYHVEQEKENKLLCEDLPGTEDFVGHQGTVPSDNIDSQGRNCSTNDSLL
Chain of Paired box protein Pax-8 (Q06710 whole entry): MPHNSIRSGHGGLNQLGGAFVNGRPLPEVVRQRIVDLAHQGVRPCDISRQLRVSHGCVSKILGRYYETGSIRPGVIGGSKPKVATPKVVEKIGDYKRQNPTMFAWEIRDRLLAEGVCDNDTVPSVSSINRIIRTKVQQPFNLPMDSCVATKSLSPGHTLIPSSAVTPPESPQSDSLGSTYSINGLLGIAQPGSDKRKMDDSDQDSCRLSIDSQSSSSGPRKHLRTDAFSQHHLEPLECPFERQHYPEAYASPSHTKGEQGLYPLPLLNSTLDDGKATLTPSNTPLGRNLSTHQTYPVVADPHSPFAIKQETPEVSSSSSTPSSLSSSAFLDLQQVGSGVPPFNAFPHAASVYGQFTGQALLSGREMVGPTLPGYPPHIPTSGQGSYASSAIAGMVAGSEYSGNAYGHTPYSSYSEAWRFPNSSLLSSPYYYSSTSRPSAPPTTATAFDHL
Chain of Large T antigen (P03070 whole entry): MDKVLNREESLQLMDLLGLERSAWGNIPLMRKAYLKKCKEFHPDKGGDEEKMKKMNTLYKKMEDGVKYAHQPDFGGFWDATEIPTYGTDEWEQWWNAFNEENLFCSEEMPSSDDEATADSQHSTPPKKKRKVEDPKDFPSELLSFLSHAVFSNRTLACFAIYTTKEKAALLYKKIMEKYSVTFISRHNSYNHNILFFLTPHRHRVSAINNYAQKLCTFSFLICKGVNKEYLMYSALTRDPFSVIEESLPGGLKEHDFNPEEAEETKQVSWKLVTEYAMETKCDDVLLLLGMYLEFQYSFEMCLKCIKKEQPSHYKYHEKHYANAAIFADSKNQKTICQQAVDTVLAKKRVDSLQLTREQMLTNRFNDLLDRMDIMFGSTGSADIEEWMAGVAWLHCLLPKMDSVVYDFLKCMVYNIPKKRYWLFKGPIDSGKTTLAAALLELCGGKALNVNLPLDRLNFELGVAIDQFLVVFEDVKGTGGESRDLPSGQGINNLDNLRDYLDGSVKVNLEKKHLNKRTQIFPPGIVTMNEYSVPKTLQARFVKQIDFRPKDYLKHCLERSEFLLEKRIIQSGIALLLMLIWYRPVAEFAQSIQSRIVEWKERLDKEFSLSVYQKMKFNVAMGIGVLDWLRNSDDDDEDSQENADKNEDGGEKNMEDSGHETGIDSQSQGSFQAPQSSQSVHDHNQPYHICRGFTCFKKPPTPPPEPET
Chain of Beta-adrenergic receptor kinase 1 (P25098 whole entry): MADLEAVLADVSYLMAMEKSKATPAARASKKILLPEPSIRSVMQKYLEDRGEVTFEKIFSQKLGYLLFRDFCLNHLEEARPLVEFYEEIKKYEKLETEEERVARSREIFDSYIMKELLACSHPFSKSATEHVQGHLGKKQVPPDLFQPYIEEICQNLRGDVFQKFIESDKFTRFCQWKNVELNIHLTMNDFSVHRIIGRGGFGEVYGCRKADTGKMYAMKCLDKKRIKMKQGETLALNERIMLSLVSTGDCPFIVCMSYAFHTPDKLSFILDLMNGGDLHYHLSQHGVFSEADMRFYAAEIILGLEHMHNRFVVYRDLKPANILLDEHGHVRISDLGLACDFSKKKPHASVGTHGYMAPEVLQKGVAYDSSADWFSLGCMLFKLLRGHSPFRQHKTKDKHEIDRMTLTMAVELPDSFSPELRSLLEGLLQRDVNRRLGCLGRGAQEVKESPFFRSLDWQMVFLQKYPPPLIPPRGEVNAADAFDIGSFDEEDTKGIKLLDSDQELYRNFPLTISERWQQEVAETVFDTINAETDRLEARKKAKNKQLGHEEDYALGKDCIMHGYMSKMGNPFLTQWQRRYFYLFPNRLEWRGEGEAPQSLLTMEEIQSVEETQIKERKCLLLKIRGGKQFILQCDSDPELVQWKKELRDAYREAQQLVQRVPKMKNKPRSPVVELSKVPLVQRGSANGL
Chain of Aryl hydrocarbon receptor (P35869 whole entry): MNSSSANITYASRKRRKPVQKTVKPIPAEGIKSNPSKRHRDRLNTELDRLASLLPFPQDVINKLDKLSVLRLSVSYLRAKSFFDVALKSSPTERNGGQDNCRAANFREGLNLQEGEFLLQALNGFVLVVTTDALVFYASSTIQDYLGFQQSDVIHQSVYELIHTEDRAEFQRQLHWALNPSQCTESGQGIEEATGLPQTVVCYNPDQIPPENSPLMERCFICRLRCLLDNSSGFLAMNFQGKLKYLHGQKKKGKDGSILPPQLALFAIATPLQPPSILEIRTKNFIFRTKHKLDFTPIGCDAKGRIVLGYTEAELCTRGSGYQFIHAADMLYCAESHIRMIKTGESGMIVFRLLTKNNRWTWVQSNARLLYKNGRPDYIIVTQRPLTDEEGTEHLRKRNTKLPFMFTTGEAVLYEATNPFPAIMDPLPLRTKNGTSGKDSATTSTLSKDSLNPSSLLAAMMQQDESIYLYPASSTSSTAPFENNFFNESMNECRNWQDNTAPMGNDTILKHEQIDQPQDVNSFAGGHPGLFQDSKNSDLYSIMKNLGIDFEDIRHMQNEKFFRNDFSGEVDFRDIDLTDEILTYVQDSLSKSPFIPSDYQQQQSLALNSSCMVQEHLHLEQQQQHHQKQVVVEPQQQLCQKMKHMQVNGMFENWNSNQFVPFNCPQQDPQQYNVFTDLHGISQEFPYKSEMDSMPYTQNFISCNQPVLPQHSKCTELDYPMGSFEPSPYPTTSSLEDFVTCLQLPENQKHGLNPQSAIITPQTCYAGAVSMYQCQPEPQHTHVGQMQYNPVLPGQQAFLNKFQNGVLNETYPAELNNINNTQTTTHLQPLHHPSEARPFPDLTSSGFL

With `CSc1ccc(CN2CCC(Oc3ccc(C(=O)N4CCCC4)cc3)CC2)cc1`, the EC50 in [1] was 0.348 µM (active); in [2] it was 1.39 µM (active).
On to `O=S(=O)(O)c1cc(O)c2c(O)c(N=Nc3cc(Cl)ccc3O)c(S(=O)(=O)O)cc2c1`, for which the EC50 in assay [3] was 16.3 µM (inactive); in assay [5], 14.8 µM (active); in assay [6], > 150 µM (inactive); in assay [7] it was > 38 µM (not active); in [8] it was 13.1 µM (active). Besides, the values for the IC50 (in assay [4]; at Large T antigen) were > 20 µM (inactive) and 13.4 µM (active), respectively.
`COP(=S)(OC)Oc1ccc(SC)c(C)c1` [FENTHION]: the AC50 in assay [9] was 22.4 µM (inconclusive); in [10], 50.1 µM (inconclusive).
In the case of `Cc1ccc2cccc(NS(=O)(=O)c3ccccc3)c2n1`, the AC50 in [11] is 17.3 µM (active); in assay [13], 44 µM (active); in assay [16] it was 10.7 µM (active); in assay [18] it was 21.1 µM (active); in assay [19], 49.5 µM (active); in assay [20], 20.5 µM (active). The AC50 was 15.6 µM (active) in assay [23]; 14 µM (active) in assay [26]; 5.65 µM (active) in assay [27]; 5.74 µM (active) on Paired box protein Pax-8; 8.75 µM (active) in assay [30]. Further, the half-maximal effective concentration (EC50) in the assay with BJ [12] is 37.9 µM (active); at Streptokinase A it was > 150 µM (not active); in [15], 5.1 µM (active); in the assay on Streptococcus, > 150 µM (not active); in assay [21], 21.6 µM (active); in the assay with BJ [22], 5.74 µM (active). Moreover, the EC50 in the assay with BJ [25] is > 150 µM (not active); on Beta-galactosidase, > 40 µM (inactive); with BJ [31], 17.8 µM (active). The IC50 in assay [14] is 0.589 µM (active); in the assay on HEK293 [17] it was > 79 µM (inactive); in the assay with HEK293 [24], > 80 µM (inactive); with Jurkat, 1.21 µM (active); in [28], > 80 µM (inactive); in assay [29], 2.35 µM (active).

Values taken from ChEMBL document CHEMBL1201862, “PubChem BioAssay data set” (2004).
